Where two headings read alike, the source gives them in different places.
Assays:
[1] = target: recombinant human Mcl-1 (residues 171-327) / Bim interaction (Homo sapiens (Human), UniProt Q07820); test: biochemical; assay type: binding; conditions: read-out: Mcl-1 HTRF IC50
[2] = test system: human multiple myeloma cell line, OPM-2; test: Cell viability assay (OPM-2 10 FBS), CellTiter-Glo; assay type: cell-based
Procedure, shortened: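 3000 cells/well, RPMI 1640 + 10% FBS; serial compound dilutions, 16 h, 37 °C/5% CO2.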

[3] = TR-FRET, Mcl-1(171-327) / biotin-Bim (51-76)
[4] = Homo sapiens, OPM-2, 16 h, read-out: OPM-2 10% FBS IC50 IP, OPM-2 cells, 10% FBS, 16 h, CellTiter-Glo
[5] = read-out: OPM-2 10% FBS IC50 IP, OPM-2 cells, 10% FBS, 16 h, CellTiter-Glo
[6] = 0.1 nM Mcl-1(171-327), 0.05 nM biotin-Bim (51-76)
[7] = Homo sapiens, OPM-2, 16 h, read-out: OPM-2 10% FBS IC50 IP, OPM-2 cells, 10% FBS, 16 h incubation

Chain of recombinant human Mcl-1 (residues 171-327) / Bim interaction (Q07820 171-327): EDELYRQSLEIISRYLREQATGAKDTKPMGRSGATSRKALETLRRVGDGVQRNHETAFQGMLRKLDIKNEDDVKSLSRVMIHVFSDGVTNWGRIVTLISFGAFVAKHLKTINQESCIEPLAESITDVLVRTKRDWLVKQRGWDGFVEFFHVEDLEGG

| Compound | IC50 [1, 3] [nM] | IC50 [2, 4] [nM] | IC50 [2, 5] [nM] | IC50 [1, 6] [nM] | IC50 [2, 7] [nM] |
| --- | --- | --- | --- | --- | --- |
| CC[C@]1(O)/C=C/C[C@H](C)[C@@H](C)S(=O)(=O)NC(=O)c2ccc3c(c2)N(C[C@@H]2CC[C@H]21)C[C@@]1(CCCc2cc(Cl)ccc21)CO3 [Example 100207, (1S,3′R,6′R,7′S,8′E,11′S,12′R)-6-chloro-7′-ethyl-7′-hydroxy-11′,12′-dimethyl-3,4-dihydro-2H,15′H-spiro[naphthalene-1,22′-[20]oxa[13]thia[1,14]diazatetracyclo [14.7.2.0~3,6~.0~19,24~]pentacosa[8,16,18,24]tetraen]-15′-one 13′,13′-dioxide] | 0.141 | 215 | – | – | – |
| C[C@@H]1[C@@H](C)C/C=C/[C@@](O)(C#CCCO)[C@@H]2CC[C@H]2CN2C[C@@]3(CCCc4cc(Cl)ccc43)COc3ccc(cc32)C(=O)NS1(=O)=O [Example 100422, (1S,3′R,6′R,7′S,8′E,11′S,12′R)-6-chloro-7′-hydroxy-7′-(4-hydroxy-1-butyn-1-yl)-11′,12′-dimethyl-3,4-dihydro-2H,15′H-spiro[naphthalene-1,22′-[20]oxa[13]thia[1,14]diazatetracyclo [14.7.2.0~3,6~.0~19,24~]pentacosa[8,16,18,24]tetraen]-15′-one 13′,13′-dioxide] | 0.174 | 182 | – | – | – |
| CNC(=O)C[C@]1(O)CCC[C@H](C)[C@@H](C)S(=O)(=O)NC(=O)c2ccc3c(c2)N(C[C@@H]2CC[C@H]21)C[C@@]1(CCCc2cc(Cl)ccc21)CO3 [Example 100098, 2-((1S,3′R,6′R,7′R,11′S,12′R)-6-chloro-7′-hydroxy-11′,12′-dimethyl-13′,13′-dioxido-15′-oxo-3,4-dihydro-2H-spiro[naphthalene-1,22′-[20]oxa[13]thia[1,14]diazatetracyclo [14.7.2.0~3,6~.0~19,24~]pentacosa[16,18,24]trien]-7′-yl)-N-methylacetamide] | 0.231 | 748 | – | – | – |
| CO[C@@]1(C#CCCN2CCN(S(C)(=O)=O)CC2)/C=C/C[C@H](C)[C@@H](C)S(=O)(=O)NC(=O)c2ccc3c(c2)N(C[C@@H]2CC[C@H]21)C[C@@]1(CCCc2cc(Cl)ccc21)CO3 [Example 100488, (1S,3′R,6′R,7′S,8′E,11′S,12′R)-6-chloro-7′-methoxy-11′,12′-dimethyl-7′-(4-(4-(methylsulfonyl)-1-piperazinyl)-1-butyn-1-yl)-3,4-dihydro-2H,15′H-spiro[naphthalene-1,22′-[20]oxa[13]thia[1,14]diazatetracyclo [14.7.2.0~3,6~.0~19,24~]pentacosa[8,16,18,24]tetraen]-15′-one 13′,13′-dioxide] | 0.389 | 346 | – | – | – |
| C[C@@H]1[C@@H](C)CCC[C@@](O)(CCN2CCOCC2)[C@@H]2CC[C@H]2CN2C[C@@]3(CCCc4cc(Cl)ccc43)COc3ccc(cc32)C(=O)NS1(=O)=O [Example 100095, (1S,3′R,6′R,7′R,11′S,12′R)-6-chloro-7′-hydroxy-11′,12′-dimethyl-7′-(2-(4-morpholinyl)ethyl)-3,4-dihydro-2H,15′H-spiro[naphthalene-1,22′-[20]oxa[13]thia[1,14]diazatetracyclo [14.7.2.0~3,6~.0~19,24~]pentacosa[16,18,24]trien]-15′-one 13′,13′-dioxide] | 0.148 | – | 113 | – | – |
| CO[C@]1(CCN2CCCCC2)/C=C/C[C@H](C)[C@@H](C)S(=O)(=O)NC(=O)c2ccc3c(c2)N(C[C@@H]2CC[C@H]21)C[C@@]1(CCCc2cc(Cl)ccc21)CO3 [Example 100449, (1S,3′R,6′R,7′R,8′E,11′S,12′R)-6-chloro-7′-methoxy-11′,12′-dimethyl-7′-(2-(1-piperidinyl)ethyl)-3,4-dihydro-2H,15′H-spiro[naphthalene-1,22′-[20]oxa[13]thia[1,14]diazatetracyclo [14.7.2.0~3,6~.0~19,24~]pentacosa[8,16,18,24]tetraen]-15′-one 13′,13′-dioxide] | 0.071 | 171 | – | – | – |
| CO[C@]1(CC=O)/C=C/C[C@H](C)[C@@H](C)S(=O)(=O)NC(=O)c2ccc3c(c2)N(C[C@@H]2CC[C@H]21)C[C@@]1(CCCc2cc(Cl)ccc21)CO3 [Example 100322, ((1S,3′R,6′R,7′R,8′E,11′S,12′R)-6-chloro-7′-methoxy-11′,12′-dimethyl-13′,13′-dioxido-15′-oxo-3,4-dihydro-2H-spiro[naphthalene-1,22′-[20]oxa[13]thia[1,14]diazatetracyclo [14.7.2.0~3,6~.0~19,24~]pentacosa[8,16,18,24]tetraen]-7′-yl)acetaldehyde] | 2.23 | 1540 | – | – | – |
| COCC[C@@H]1[C@@H](C)C/C=C/[C@@](CN2CCN(C(C)(C)C)CC2)(OC)[C@@H]2CC[C@H]2CN2C[C@@]3(CCCc4cc(Cl)ccc43)COc3ccc(cc32)C(=O)NS1(=O)=O [Example 189, (1S,3′R,6′R,7′R,8′E,11′S,12′R)-7′-((4-tert-butyl-1-piperazinyl)methyl)-6-chloro-7′-methoxy-12′-(2-methoxyethyl)-11′-methyl-3,4-dihydro-2H,15′H-spiro[naphthalene-1,22′-[20]oxa[13]thia[1,14]diazatetracyclo [14.7.2.0~3,6~.0~19,24~]pentacosa[8,16,18,24]tetraen]-15′-one 13′,13′-dioxide] | – | – | – | 0.084 | 33 |
| CCOC(=O)CN1CCN(C[C@]2(OC)/C=C/C[C@H](C)[C@@H](C)S(=O)(=O)NC(=O)c3ccc4c(c3)N(C[C@@H]3CC[C@H]32)C[C@@]2(CCCc3cc(Cl)ccc32)CO4)CC1 [Example 261, ethyl (4-(((1S,3′R,6′R,7′S,8′E,11′S, 12′R)-6-chloro-7′-methoxy-11′,12′-dimethyl-13′,13′-dioxido-15′-oxo-3,4-dihydro-2H-spiro[naphthalene-1,22′-[20]oxa[13]thia[1,14]diazatetracyclo [14.7.2.0~3,6~.0~19,24~]pentacosa[8,16,18,24]tetraen]-7′-yl)methyl)-1-piperazinyl)acetate] | – | – | – | 0.153 | 146 |
| CO[C@@]1(CN2CCN3C(=O)COC[C@@H]3C2)/C=C/C[C@H](C)[C@@H](C)S(=O)(=O)NC(=O)c2ccc3c(c2)N(C[C@@H]2CC[C@H]21)C[C@@]1(CCCc2cc(Cl)ccc21)CO3 [Example 141, (1S,3′R,6′R,7′S,8′E,11′S,12′R)-6-chloro-7′-methoxy-11′,12′-dimethyl-7′-(((9aS)-4-oxohexahydropyrazino[2,1-c][1,4]oxazin-8(1H)-yl)methyl)-3,4-dihydro-2H,15′H-spiro[naphthalene-1,22′-[20]oxa[13]thia[1,14]diazatetracyclo [14.7.2.0~3,6~.0~19,24~]pentacosa[8,16,18,24]tetraen]-15′-one 13′,13′-dioxide] | – | – | – | 0.152 | 367 |
| CO[C@@]1(CN2CCN(c3ccccn3)CC2)/C=C/C[C@H](C)[C@@H](C)S(=O)(=O)NC(=O)c2ccc3c(c2)N(C[C@@H]2CC[C@H]21)C[C@@]1(CCCc2cc(Cl)ccc21)CO3 [Example 252, (1S,3′R,6′R,7′S,8′E,11′S,12′R)-6-chloro-7′-methoxy-11′,12′-dimethyl-7′-((4-(2-pyridinyl)-1-piperazinyl)methyl)-3,4-dihydro-2H,15′H-spiro[naphthalene-1,22′-[20]oxa[13]thia[1,14]diazatetracyclo [14.7.2.0~3,6~.0~19,24~]pentacosa[8,16,18,24]tetraen]-15′-one 13′,13′-dioxide] | – | – | – | 1.38 | 1800 |
| CCO[C@]1(CN2CCN3CCOC[C@@H]3C2)/C=C/C[C@H](C)[C@@H](COC)S(=O)(=O)NC(=O)c2ccc3c(c2)N(C[C@@H]2CC[C@H]21)C[C@@]1(CCCc2cc(Cl)ccc21)CO3 [Example 171, (1S,3′R,6′R,7′R,8′E,11′S,12′S)-6-chloro-7′-ethoxy-7′-((9aS)-hexahydropyrazino[2,1-c][1,4]oxazin-8(1H)-ylmethyl)-12′-(methoxymethyl)-11′-methyl-3,4-dihydro-2H,15′H-spiro[naphthalene-1,22′-[20]oxa[13]thia[1,14]diazatetracyclo [14.7.2.0~3,6~.0~19,24~]pentacosa[8,16,18,24]tetraen]-15′-one 13′,13′-dioxide] | – | – | – | 0.074 | 122 |
| C[C@@H]1[C@@H](C)C/C=C/[C@@](O)(C#CCN2CCCCC2)[C@@H]2CC[C@H]2CN2C[C@@]3(CCCc4cc(Cl)ccc43)COc3ccc(cc32)C(=O)NS1(=O)=O [Example 100424, (1S,3′R,6′R,7′S,8′E,11′S,12′R)-6-chloro-7′-hydroxy-11′,12′-dimethyl-7′-(3-(1-piperidinyl)-1-propyn-1-yl)-3,4-dihydro-2H,15′H-spiro[naphthalene-1,22′-[20]oxa[13]thia[1,14]diazatetracyclo [14.7.2.0~3,6~.0~19,24~]pentacosa[8,16,18,24]tetraen]-15′-one 13′,13′-dioxide] | 0.249 | – | 469 | – | – |
| CO[C@@]1(CN2CCN3CCOC[C@@H]3C2)/C=C/C[C@H](C)[C@@H](C)S(=O)(=O)NC(=O)c2ccc3c(c2)N(C[C@@H]2CC[C@H]21)C[C@@]1(CCCc2cc(Cl)ccc21)CO3 [Example 56, (1S,3′R,6′R,7′S,8′E,11′S,12′R)-6-chloro-7′-((9aS)-hexahydropyrazino[2,1-c][1,4]oxazin-8(1H)-ylmethyl)-7′-methoxy-11′,12′-dimethyl-3,4-dihydro-2H,15′H-spiro[naphthalene-1,22′-[20]oxa[13]thia[1,14]diazatetracyclo [14.7.2.0~3,6~.0~19,24~]pentacosa[8,16,18,24]tetraen]-15′-one 13′,13′-dioxide] | – | – | – | 0.083 | 79 |

Reference: patent US10821115B2, “Compounds that inhibit Mcl-1 protein” (priority 2017, dated 2020)
